What was measured:
Assay type in all cases: in vivo
[1] = system: Stellaria media; assay: Herbicidal pre-emergence action, STEME; settings: visual grading after ca. 3 weeks vs untreated controls
Excerpt: (§1) Seeds of mono- and dicotyledonous weed plants were sown in plastic pots (double sowings with one species of mono- and one species of dicotyledonous weed plants per pot), in sandy loam, and covered with soil. The compounds according to the invention, formulated in the form of wettable powders (WP) or as emulsifiable concentrates (EC), were applied to the surface of the covering soil as an aqueous suspension or as an emulsion, with the addition of 0.5% of an additive, at an application rate of 600 litres of water per hectare (converted). Following treatment, the pots were placed in a greenhouse and kept under optimum growth conditions for the test plants. The visual grading of the damage to the test plants is carried out after ca. 3 weeks in comparison to untreated controls (herbicidal effect in percent (%): 100% effect=plants have died, 0% effect=as control plants). Seeds of mono- and dicotyledonous weed plants were sown in plastic pots (double sowings with one species of mono- and one species of dicotyledonous weed plants per pot), in sandy loam, and covered with soil. The compounds according to the invention, formulated in the form of wettable powders (WP) or as emulsifiable concentrates (EC), were applied to the surface of the covering soil as an aqueous suspension or as an emulsion, with the addition of 0.5% of an additive, at an application rate of 600 litres of water per hectare (converted). Following treatment, the pots were placed in a greenhouse and kept under optimum growth conditions for the test plants. The visual grading of the damage to the test plants is carried out after ca. 3 weeks in comparison to untreated controls (herbicidal effect in percent (%): 100% effect=plants have died, 0% effect=as control plants).

[2] = system: Amaranthus retroflexus; assay: Herbicidal pre-emergence action, AMARE; settings: 1280 g/ha, visual grading after ca. 3 weeks vs untreated controls
Excerpt: as §1

[3] = system: Veronica persica; assay: Herbicidal pre-emergence action, VERPE; settings: 1280 g/ha, visual grading after ca. 3 weeks vs untreated controls
Excerpt: as §1

[4] = system: Amaranthus retroflexus; assay: Herbicidal post-emergence action, AMARE; settings: assessed visually after ca. 3 weeks vs untreated controls
Excerpt: (§2) Seeds of mono- and dicotyledonous weed plants were sown in plastic pots (double sowings with one species of mono- and one species of dicotyledonous weed plants per pot), in sandy loam, covered with soil and grown under controlled growth conditions. 2 to 3 weeks after sowing, the test plants were sprayed in the single-leaf stage. The compounds according to the invention, formulated in the form of wettable powders (WP) or as emulsifiable concentrates (EC), were sprayed onto the green plant parts as an aqueous suspension or as an emulsion, with the addition of 0.5% of an additive, at an application rate of 600 litres of water per hectare (converted). The test plants were placed in the greenhouse for ca. 3 weeks under optimum growth conditions, and then the effect of the preparations is assessed visually in comparison with untreated controls (herbicidal effect in percent (%): 100% effect=plants have died, 0% effect=as control plants). […]

[5] = system: Veronica persica; assay: Herbicidal post-emergence action, VERPE; settings: assessed visually after ca. 3 weeks vs untreated controls
Excerpt: as §2

[6] = system: Poa annua; assay: Herbicidal pre-emergence action, POAAN; settings: visual grading after ca. 3 weeks vs untreated controls
Excerpt: as §1

[7] = system: Matricaria inodora; assay: Herbicidal pre-emergence action, MATIN; settings: visual grading after ca. 3 weeks vs untreated controls
Excerpt: as §1

[8] = system: Stellaria media; assay: Herbicidal post-emergence action, STEME; settings: assessed visually after ca. 3 weeks vs untreated controls
Excerpt: as §2

[9] = system: Poa annua; assay: Herbicidal post-emergence action, POAAN; settings: assessed visually after ca. 3 weeks vs untreated controls
Excerpt: as §2

[10] = system: Lolium rigidum; assay: Herbicidal pre-emergence action, LOLRI; settings: visual grading after ca. 3 weeks vs untreated controls
Excerpt: as §1

[11] = system: Alopecurus myosuroides; assay: Herbicidal post-emergence action, ALOMY; settings: 1280 g/ha, assessed visually after ca. 3 weeks vs untreated controls
Excerpt: as §2

[12] = system: Kochia scoparia; assay: Herbicidal post-emergence action, KCHSC; settings: assessed visually after ca. 3 weeks vs untreated controls
Excerpt: as §2

[13] = system: Abutilon theophrasti; assay: Herbicidal post-emergence action, ABUTH; settings: assessed visually after ca. 3 weeks vs untreated controls
Excerpt: as §2

[14] = system: Matricaria inodora; assay: Herbicidal post-emergence action, MATIN; settings: assessed visually after ca. 3 weeks vs untreated controls
Excerpt: as §2

[15] = system: Lolium rigidum; assay: Herbicidal post-emergence action, LOLRI; settings: 1280 g/ha, assessed visually after ca. 3 weeks vs untreated controls
Excerpt: as §2

| Structure (SMILES) | herbicidal effect STEME ([1]; 1280 g/ha) | herbicidal effect AMARE [2] | herbicidal effect AMARE ([4]; 320 g/ha) | herbicidal effect AMARE ([4]; 1280 g/ha) | herbicidal effect VERPE ([5]; 1280 g/ha) | herbicidal effect POAAN ([6]; 1280 g/ha) | herbicidal effect MATIN ([7]; 1280 g/ha) | herbicidal effect STEME ([8]; 1280 g/ha) | herbicidal effect KCHSC ([12]; 1280 g/ha) | herbicidal effect MATIN ([14]; 1280 g/ha) | also measured |
| --- | --- | --- | --- | --- | --- | --- | --- | --- | --- | --- | --- |
| Cc1ccnc(Cl)c1C(=O)Nc1ncns1 [Example I-003] | 100% | 100% | 90% | 90% | 100% | 100% | 100% | 90% | – | – | herbicidal effect VERPE [3]: 90%; herbicidal effect VERPE ([5]; 320 g/ha): 90% |
| CCc1ccnc(Cl)c1C(=O)Nc1ncns1 [Example I-004] | 100% | 90% | – | 100% | 100% | 90% | 90% | – | – | – | herbicidal effect POAAN ([9]; 1280 g/ha): 100%; herbicidal effect LOLRI ([10]; 1280 g/ha): 100% |
| Cc1nsc(NC(=O)c2c(C(F)(F)F)ccnc2F)n1 [Example I-008] | 90% | 90% | – | 100% | 90% | – | – | 100% | – | – | herbicidal effect ALOMY [11]: 90%; herbicidal effect STEME ([8]; 320 g/ha): 90% |
| COc1nccc(C(F)(F)F)c1C(=O)Nc1ncns1 [Example I-010] | 90% | – | 100% | 100% | 100% | 100% | 100% | – | 100% | – | herbicidal effect POAAN ([9]; 320 g/ha): 90%; herbicidal effect POAAN ([9]; 1280 g/ha): 90%; herbicidal effect LOLRI ([10]; 1280 g/ha): 100%; herbicidal effect VERPE ([5]; 320 g/ha): 100% |
| Cc1ccncc1C(=O)Nc1ncns1 [Example I-011] | 90% | 100% | – | – | – | 100% | 90% | – | – | – | herbicidal effect STEME ([1]; 320 g/ha): 90%; herbicidal effect POAAN ([6]; 320 g/ha): 90% |
| O=C(Nc1nc(C(F)(F)F)ns1)c1cnccc1C(F)(F)F [Example I-013] | – | 100% | 90% | 100% | 100% | – | – | 100% | 100% | 100% | herbicidal effect VERPE ([5]; 320 g/ha): 100%; herbicidal effect ABUTH ([13]; 1280 g/ha): 100%; herbicidal effect MATIN ([14]; 320 g/ha): 100% |
| O=C(Nc1nc(Br)ns1)c1cnccc1C(F)(F)F [Example I-014] | – | – | – | 100% | 100% | – | – | 100% | 90% | 100% | herbicidal effect STEME ([8]; 320 g/ha): 90% |
| Cc1cc(Cl)nc(Cl)c1C(=O)Nc1ncns1 [Example I-020, 2,6-dichloro-4-methyl-N-(1,2,4-thiadiazol-5-yl)pyridine-3-carboxamide] | 100% | 90% | – | 90% | 100% | – | 90% | 90% | – | 90% | herbicidal effect STEME ([1]; 320 g/ha): 90% |
| O=C(Nc1ncns1)c1c(C(F)(F)F)ccnc1Cl [Example I-021] | 100% | 100% | 100% | 100% | 100% | 100% | 100% | 100% | 100% | 100% | herbicidal effect POAAN ([9]; 1280 g/ha): 100%; herbicidal effect STEME ([1]; 320 g/ha): 90%; herbicidal effect LOLRI ([10]; 320 g/ha): 90%; herbicidal effect LOLRI ([10]; 1280 g/ha): 100%; herbicidal effect VERPE [3]: 90%; herbicidal effect KCHSC ([12]; 320 g/ha): 90%; herbicidal effect LOLRI [15]: 90%; herbicidal effect VERPE ([5]; 320 g/ha): 100%; herbicidal effect ABUTH ([13]; 320 g/ha): 90%; herbicidal effect ABUTH ([13]; 1280 g/ha): 100%; herbicidal effect POAAN ([6]; 320 g/ha): 90%; herbicidal effect MATIN ([7]; 320 g/ha): 90%; herbicidal effect MATIN ([14]; 320 g/ha): 100%; herbicidal effect STEME ([8]; 320 g/ha): 90% |
| Cc1ccnc(Br)c1C(=O)Nc1ncns1 [Example I-022, 2-bromo-4-methyl-N-(1,2,4-thiadiazol-5-yl)pyridine-3-carboxamide] | 100% | – | – | 90% | – | – | – | 90% | – | – | – |
| Cc1cc(F)ncc1C(=O)Nc1ncns1 [Example I-023] | 90% | 90% | – | 90% | – | 100% | 100% | – | – | – | – |
| O=C(Nc1ncns1)c1cnc(Cl)cc1C(F)(F)F [Example I-024] | – | – | – | 90% | 90% | – | 90% | – | – | 100% | herbicidal effect MATIN ([14]; 320 g/ha): 90% |
| CC(C)c1ccnc(Cl)c1C(=O)Nc1ncns1 [Example I-026, 2-chloro-4-isopropyl-N-(1,2,4-thiadiazol-5-yl)pyridine-3-carboxamide] | 100% | 100% | 90% | 100% | 90% | – | 100% | 100% | 90% | – | herbicidal effect STEME ([1]; 320 g/ha): 90%; herbicidal effect LOLRI ([10]; 1280 g/ha): 100% |
| COc1nccc(C(C)C)c1C(=O)Nc1ncns1 [Example I-027] | 90% | – | – | – | – | – | – | – | – | – | – |

Source: patent US20240349726A1, “SUBSTITUTED 1,2,4-THIADIAZOLYL NICOTINAMIDES, SALTS OR N-OXIDES THEREOF AND THEIR USE AS HERBICIDALLY ACTIVE SUBSTANCES” (Bayer Aktiengesellschaft, priority 2021, published 2024)
